The term pIC50 denotes the IC50 on a negative log10 scale, so that one unit is a factor of ten. A higher pIC50 goes with a small IC50. The term GI50 denotes the concentration giving 50% growth inhibition.

From patent publication US9328093B2, “Selective inhibitors of ubiquitin specific protease 7, the pharmaceutical compositions thereof and their therapeutic applications” (HYBRIGENICS SA, priority 2010, dated 2016) come the findings set out here.

pIC50: −log10 of the molar value. Where two headings read alike, the source gives them in different places.

One assay concerns the target T1, USP7 (Homo sapiens, UniProt Q93009).
T1 construct: Full-length wild-type human USP7 and its catalytic mutant (cysteine 223 replaced by alanine, C223A) were produced as N-terminally His-tagged fusions; His (N); made in house; host or cells: Spodoptera frugiperda Sf9 (or High Five) insect cells, baculovirus pFastBac-HT-B
Kind of assay: USP7 activity assay (Ub-AMC substrate). The format is biochemical. As to conditions: Ub-AMC 300 nM, USP7 100 pM, 30 min pre-incubation. The text has this: The cDNA encoding USP7 was obtained by PCR amplification from placenta mRNA. USP7 cDNA was subcloned by PCR into a baculovirus expression vector (pFastBac-HT; Invitrogen). Full-length wild-type human USP7 and its catalytic mutant (cysteine 223 replaced by alanine, C223A) were produced as N-terminally His-tagged fusions in Spodoptera frugiperda cells (Sf9, Invitrogen), using the Bac-to-Bac Baculovirus system from Invitrogen according to the manufacturer's instructions. pFastBac-HT-B-USP7 was used to transform DH10bac cells (Invitrogen), and blue/white selection was carried out on X-gal/IPTG agar plates. Bacmid DNA was prepared by an alkaline lysis procedure. The integrity of the bacmid minipreps and their orientation were checked by PCR, using generic and specific primers. Sf9 insect cells were cultured in InsectXpress medium (Cambrex) at 27° C. and transfected with the corresponding bacmid, using GeneShuttle 40 (Q-BIOgen). Viruses were recovered in the supernatant 72 h after transfection. Viruses were amplified by infecting insect cells (Sf9 or High Five cells; invitrogen) in 50 ml InsectXpress medium in a 150 cm^2 cell culture flask with 500 μl of the supernatant from transfected Sf9 cells. Following the second round of amplification, infected cells were recovered by rapid SDS lysis, boiled for 5 min at 100° C., sonicated briefly and centrifuged for 20 min at 14,000 g. Expression levels in infected Sf9 cells were compared with those in uninfected cells. Fusion proteins were then allowed to bind to TALON beads (BD Biosciences, TALON metal affinity resin) for 30 min at 4° C. with gentle rocking. Beads were extensively washed (50 mM sodium phosphate buffer pH 7.0, 500 mM NaCl, 10 mM Imidazole, 0.5% Triton X-100 and 10% glycerol) and bound proteins were eluted in wash buffer supplemented with 250 mM Imidazole (Sigma). Eluted fractions were resolved on 4-12% NuPAGE gels (Novex, Invitrogen). Fractions containing high concentrations of purified proteins (purity >95%) were dialyzed (20 mM Tris HCl pH 7.6, 200 mM NaCl, 1 mM DTT, 1 mM EDTA and 10% glycerol) were aliquoted and snap frozen in liquid nitrogen before storage at −80° C.
USP7 was diluted in USP buffer (50 mM Tris HCl; 0.5 mM EDTA; 5 mM DTT; 0.01% Triton X-100; Bovine Serum Albumin 0.05 mg·ml^−1 pH7.6). Compounds stocks (10 mM) were stored at −20° C. in DMSO. Compounds were tested at different concentrations: from 200 μM to 91 nM.
Reactions were performed as duplicates in Black 384 well plates (small volumes microplates; Greiner; 10 μl final reaction volume). The substrate concentration for USP7 was 300 nM Ub-AMC (Chem. Biol., 2003, 10, p. 837-846) (Boston Biochem). The concentrations of the enzyme (USP7) in specificity assays was 100 pM. The concentrations were determined in order to perform specificity assays under initial velocities at fixed substrate concentration. Compounds were pre-incubated with enzymes for 30 minutes at 25° C. Reactions were initiated by addition of substrate to the plates containing the enzymes (+/− compounds) diluted in assay buffer. Reactions were incubated for 60 minutes at 37° C. Reactions were stopped by adding acetic acid (100 mM final). Readings were performed on a Pherastar Fluorescent Reader (BMG). λ
Emission 380 nm; λ Excitation=460 nm. Data (mean values +/− standard deviation) were analyzed as % of control (no compound) and plotted as percentage versus the Log of the compound concentration using GraphPad (Prism). Data were fitted to a sigmoidal model (variable slope).

Assay [1] relates to HCT116 colon cancer cells. Kind of assay: HCT116 cell viability and proliferation assay (MTS). Format: cell-based. The conditions noted are these: HCT116, 72 hours, read-out: Cell viability (MTS): HCT116 GI50 Day3. Here is the method: HCT116 colon cancer cells were obtained from ATCC (American Type Culture Collection), and maintained in Mc Coy's 5A medium containing 10% FBS, 3 mM glutamine and 1% penicillin/streptomycin. Cells were incubated at 37° C. in a humidified atmosphere containing 5% CO2.
Cell viability was assayed using the MTS technique in 96-well culture plates (CellTiter 96® Aqueous Non-Radioactive Cell Proliferation Assay, Promega) according to the manufacturer's instructions. MTS (3-(4,5-dimethyl-thiazol-2-yl)-5-(3-carboxy-methoxyphenyl)-2-(4-sulfophenyl)-2H-tetra-zolium) is a MTT-derived tetrazolium that is reduced in metabolically active cells into a soluble, cell-permeant formazan. The amount of formazan, detected by its absorbance at 492 nm is proportional to the number of living, metabolically active cells.
10^3 HCT116 cells were seeded per well. 24 hours later, the medium was changed and the cells treated in triplicate with the concentrations of each compound from 100 μM to 50 nM. The compounds were diluted in 100% DMSO, whose final concentration on cells was kept at 0.5%.
Cells were incubated with the compounds for 72 hours, and their viability then assayed by the addition of MTS for 2 hours. Absorbance at 492 nm was measured directly from the 96-well culture plates. Gl50 (Growth Inhibition 50) concentrations for each compound were calculated using a sigmoidal variable slope fit (Prism 4.0, Graphpad Softwares). Values represent mean of three independent experiments.

In assay [2] the target is T2, USP7 over a panel of active DUBs (Homo sapiens, UniProt Q93009). As to the kind of experiment: HA-Ub-VS labeling of active DUBs in HCT116 cell lysates. Set-up: endogenous in cells; host or cells: HCT116 (inducible USP7 shRNA line), non-denaturing lysate. The format is biochemical. The conditions noted are these: for HA-Ub-VS-USP7 protein level: different doses (100 μM to 3 μM), 2 hours. An excerpt: (§1) The C-terminally modified vinyl sulfone derivative of ubiquitin, UbVS, was clearly helpful for a direct visualization of active DUBs in cells. This tool, which binds covalently to the cysteine active site of deubiquitinating enzymes, was successfully applied to discover and characterize novel ubiquitin/ubiquitin-like proteases and to profile active deubiquitinating enzymes in normal, virus-infected, and malignant cells (Borodovsky et al., Chem Biol 2002, 9, 1149-1159, Hemelaar et al., Mol Cell Biol 2004, 24, 84-95, Ovaa et al., Proc Natl Acad Sci USA 2004 101, 2253-2258).
The HA-Ub-VS probe (Hemagglutin tag-Ubiquitin-Vinyl Sulfone) was used in this study to directly visualize the activity of all deubiquitinating enzymes from cell lysates. This tool was used to evaluate the activity/specificity of our small molecule compounds on USP7 relative to all deubiquitinating enzymes active in physiological conditions.
Inducible USP7 shRNA HCT116 cells (previously treated with or without Doxycycline (2 μg/ml) for 4 days) as well as HEK293 cells were harvested and lysed on ice with a non denaturating buffer containing Tris pH7.4, 50 mM; NaCl, 150 mM; MgCl2, 5 mM; EDTA, 0.5 mM; DTT, 2 mM; ATP, 2 mM; NP40, 0.5% and glycerol, 10%. Samples were incubated at 4° C. for 1 hour and clarified. Proteins were then quantified by Bradford method (Bio-Rad Protein Assay). 25 μg of proteins from native cell lysates were treated with compounds of examples 14 and 5 (from 100 μM to 3 μM) or with NEM (N-Ethylmaleimide, a thiol-reactive compound, 5 mM) for 2 hours at room temperature. The ubiquitin labeling reaction was initiated by the addition of HA-Ub-VS (8 μg/ml) in labeling buffer (Tris pH7.6, 50 mM; MgCl2, 5 mM; EDTA, 0.5 mM; DTT, 2 mM; ATP, 2 mM; sucrose, 250 mM) and incubated at room temperature for 30 min. Samples were next heated at 100° C. for 10 minutes and briefly sonicated. They were resolved by SDS-polyacrylamide gel electrophoresis (SDS-PAGE), transferred to a nitrocellulose membrane and probed with antibodies against USP7 (Bethyl Lab, A300-034A), HA (BabCO, MMS-101P), and actin (Sigma, A2066). Horseradish peroxidase (HRP)-conjugated anti-mouse (Jackson Laboratories, 115-035-003) or HRP-conjugated anti-rabbit (Cell Signaling, 7074) antibodies were used as secondary antibodies. Signals were detected by enhanced chemiluminescence (ECL; Amersham) according to the reagent manufacturer's instructions.

Assay [3] addresses T2, USP7 over a panel of active DUBs. Kind of assay: HA-Ub-VS labeling of active DUBs in HEK293 cell lysates. The format is biochemical. The conditions noted are these: different doses.
Excerpt: as §1
The HA-Ub-VS probe (Hemagglutin tag-Ubiquitin-Vinyl Sulfone) was used in this study to directly visualize the activity of all deubiquitinating enzymes from cell lysates. […]
Inducible USP7 shRNA HCT116 cells (previously treated with or without Doxycycline (2 μg/ml) for 4 days) as well as HEK293 cells were harvested and lysed on ice with a non denaturating buffer containing Tris pH7.4, 50 mM; NaCl, 150 mM; MgCl2, 5 mM; EDTA, 0.5 mM; DTT, 2 mM; ATP, 2 mM; NP40, 0.5% and glycerol, 10%. […] Proteins were then quantified by Bradford method (Bio-Rad Protein Assay). […] Signals were detected by enhanced chemiluminescence (ECL; Amersham) according to the reagent manufacturer's instructions.

T2 sequence (Q93009 whole entry): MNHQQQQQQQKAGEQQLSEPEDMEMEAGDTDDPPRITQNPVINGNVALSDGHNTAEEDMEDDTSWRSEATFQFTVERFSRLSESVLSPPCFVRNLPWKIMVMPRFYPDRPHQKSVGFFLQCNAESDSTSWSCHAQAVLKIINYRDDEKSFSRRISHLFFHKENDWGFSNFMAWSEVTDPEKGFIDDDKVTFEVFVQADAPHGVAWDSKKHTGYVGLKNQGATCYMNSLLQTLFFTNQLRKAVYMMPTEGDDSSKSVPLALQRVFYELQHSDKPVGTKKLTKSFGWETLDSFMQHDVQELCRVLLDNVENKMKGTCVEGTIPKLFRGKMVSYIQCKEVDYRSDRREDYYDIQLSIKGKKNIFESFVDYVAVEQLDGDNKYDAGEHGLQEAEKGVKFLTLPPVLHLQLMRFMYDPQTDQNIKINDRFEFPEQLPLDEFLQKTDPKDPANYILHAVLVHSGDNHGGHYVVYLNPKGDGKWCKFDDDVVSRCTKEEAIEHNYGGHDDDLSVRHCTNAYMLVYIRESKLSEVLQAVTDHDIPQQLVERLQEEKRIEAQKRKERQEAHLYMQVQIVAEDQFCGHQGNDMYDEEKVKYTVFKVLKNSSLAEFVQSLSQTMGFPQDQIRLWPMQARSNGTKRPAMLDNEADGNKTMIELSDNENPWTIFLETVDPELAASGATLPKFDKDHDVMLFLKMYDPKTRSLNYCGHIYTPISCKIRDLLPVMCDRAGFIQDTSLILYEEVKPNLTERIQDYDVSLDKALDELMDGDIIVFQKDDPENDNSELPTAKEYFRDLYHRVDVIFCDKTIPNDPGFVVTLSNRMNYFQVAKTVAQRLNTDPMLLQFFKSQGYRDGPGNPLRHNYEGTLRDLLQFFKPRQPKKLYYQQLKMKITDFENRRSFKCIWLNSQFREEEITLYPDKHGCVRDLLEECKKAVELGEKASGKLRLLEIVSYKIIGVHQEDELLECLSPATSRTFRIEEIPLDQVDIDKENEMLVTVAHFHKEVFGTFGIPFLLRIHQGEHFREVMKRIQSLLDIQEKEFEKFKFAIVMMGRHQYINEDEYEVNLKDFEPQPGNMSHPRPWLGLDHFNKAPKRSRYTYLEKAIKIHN

`CCN(CC)CCNC(=O)c1ccc2c(Cl)c3c(nc2c1)CCCC3` [Example 26, chlorhydrate of 9-chloro-5,6,7,8-tetrahydro-acridine-3-carboxylic acid (2-diethylamino-ethyl)-amide] showed a negative logarithm of the IC50 (pIC50) at USP7 of 4.52. Also, the GI50 in assay [1] came to 5.6 µM.

`CCN(CCCNC(=O)c1ccc2c(Cl)c3c(nc2c1)CCCC3)Cc1ccccc1` [Example 5, 9-Chloro-5,6,7,8-tetrahydro-acridine-3-carboxylic acid [3-(benzyl-ethyl-amino)-propyl]-amide]: the HA-Ub-VS-USP7 protein level result was “specific and dose-dependent decrease” in assay [2]; “also confirmed” in assay [3]. Moreover, the GI50 in assay [1] (Homo sapiens, HCT-116, 72 h) is 4 µM.

In the case of `CN(CCCNC(=O)c1ccc2c(Cl)c3c(nc2c1)CCCC3)Cc1ccccc1` [Example 14, 9-Chloro-5,6,7,8-tetrahydro-acridine-3-carboxylic acid [3-(benzyl-methyl-amino)-propyl]-amide], the HA-Ub-VS-USP7 protein level entry in assay [2] is “specific and dose-dependent decrease”; in assay [3] it was “also confirmed”. In assay [2] (fixed dose 50 μM, anti-HA immunoblot), the “HA-Ub-VS labeled DUB bands after treatment” value is recorded as “only one band was decreased”. For the same compound, the GI50 in assay [1] (Homo sapiens, HCT-116, 72 h) is 4.1 µM.

With `CCN1C(=O)C=CC1=O` [NEM, N-Ethylmaleimide, reference compound], the “HA-Ub-VS labeling of the active form of DUBs” value in assay [2] (NEM 5 mM) is recorded as “inhibited”.
